Source: the OligoGym collection
HELM strings list units from the 5' end as sugar, base in round brackets, then linkage (d deoxyribose, r ribose, m 2'-O-methyl, p phosphodiester). Strings are as the collection lists them; they lack the last nucleoside at the 3' end of the tested compound. [moe] = 2'-O-(2-methoxyethyl) (MOE); [sp] = phosphorothioate linkage; [m5C] = 5-methylcytosine

Molecular target: ATXN2
Assay: mouse, dose not given
Conditions: ASO

| Substance | 3 h FOB score [score 0-7] |
| --- | --- |
| RNA1{[moe](T)[sp].[moe](T)p.[moe]([m5C])p.[moe](T)p.[moe]([m5C])[sp].d(T)[sp].d(A)[sp].d(T)[sp].d(T)[sp].d(T)[sp].d([m5C])[sp].d(T)[sp].d(T)[sp].d(T)[sp].d(G)[sp].[moe](T)p.[moe]([m5C])p.[moe]([m5C])[sp].[moe](A)}$$$$ (last 3' nucleoside missing) | 4 |
| RNA1{[moe](A)[sp].[moe](A)p.[moe]([m5C])p.[moe](T)p.[moe](G)p.d(G)[sp].d(A)[sp].d(T)[sp].d(T)[sp].d([m5C])[sp].d(T)[sp].d(G)[sp].d(T)[sp].d(A)[sp].d([m5C])[sp].[moe](T)p.[moe](T)p.[moe](T)[sp].[moe](T)}$$$$ (last 3' nucleoside missing) | 4.75 |
| RNA1{[moe](A)[sp].[moe](T)p.[moe]([m5C])p.[moe](A)p.[moe](A)p.d([m5C])[sp].d(T)[sp].d([m5C])[sp].d([m5C])[sp].d(A)[sp].d(A)[sp].d(A)[sp].d(G)[sp].d(G)[sp].d(T)[sp].[moe](A)p.[moe](G)p.[moe]([m5C])[sp].[moe](A)}$$$$ (last 3' nucleoside missing) | 6 |
| RNA1{[moe](G)[sp].[moe](G)[sp].[moe](A)[sp].[moe](G)[sp].[moe]([m5C])[sp].d(T)[sp].d(G)[sp].d(G)[sp].d(A)[sp].d(G)[sp].d(A)[sp].d(A)[sp].d([m5C])[sp].d([m5C])[sp].d(A)[sp].[moe](T)[sp].[moe](G)[sp].[moe](A)[sp].[moe](G)}$$$$ (last 3' nucleoside missing) | 7 |
| RNA1{[moe](A)[sp].[moe]([m5C])p.[moe](T)p.[moe](G)p.[moe](A)p.d(G)[sp].d(T)[sp].d(T)[sp].d([m5C])[sp].d(T)[sp].d(A)[sp].d(T)[sp].d(A)[sp].d(G)[sp].d(G)[sp].[moe](T)p.[moe](G)p.[moe]([m5C])[sp].[moe](T)}$$$$ (last 3' nucleoside missing) | 3 |
| RNA1{[moe](T)[sp].[moe](T)p.[moe]([m5C])p.[moe](T)[sp].[moe]([m5C])[sp].d(T)[sp].d(A)[sp].d(T)[sp].d(T)[sp].d(T)[sp].d([m5C])[sp].d(T)[sp].d(T)[sp].d(T)[sp].d(G)[sp].[moe](T)p.[moe]([m5C])p.[moe]([m5C])[sp].[moe](A)}$$$$ (last 3' nucleoside missing) | 4 |
| RNA1{[moe](T)[sp].[moe](G)p.[moe](T)p.[moe](A)p.[moe]([m5C])p.d(T)[sp].d(T)[sp].d([m5C])[sp].d(A)[sp].d([m5C])[sp].d(A)[sp].d(T)[sp].d(T)[sp].d(T)[sp].d(G)[sp].[moe](G)p.[moe](A)p.[moe](G)[sp].[moe]([m5C])}$$$$ (last 3' nucleoside missing) | 2 |
| RNA1{[moe](T)[sp].[moe](G)p.[moe](T)p.[moe](A)p.[moe]([m5C])p.d(T)[sp].d(T)[sp].d([m5C])[sp].d(A)[sp].d(A)[sp].d(A)[sp].d(T)[sp].d(T)[sp].d(T)[sp].d(T)[sp].[moe](G)p.[moe](T)p.[moe](T)[sp].[moe](T)}$$$$ (last 3' nucleoside missing) | 0 |
| RNA1{[moe](A)[sp].[moe](G)p.[moe]([m5C])p.[moe](A)p.[moe](T)p.d([m5C])[sp].d(A)[sp].d(T)[sp].d(T)[sp].d(G)[sp].d(G)[sp].d([m5C])[sp].d(G)[sp].d([m5C])[sp].d(A)[sp].[moe](T)p.[moe](G)p.[moe](G)[sp].[moe](G)}$$$$ (last 3' nucleoside missing) | 5 |
| RNA1{[moe](G)[sp].[moe]([m5C])p.[moe](T)p.[moe](A)p.[moe](A)p.d([m5C])[sp].d(T)[sp].d(G)[sp].d(G)[sp].d(T)[sp].d(T)[sp].d(T)[sp].d(G)[sp].d([m5C])[sp].d([m5C])[sp].[moe]([m5C])p.[moe](T)p.[moe](T)[sp].[moe](G)}$$$$ (last 3' nucleoside missing) | 6.75 |
| RNA1{[moe]([m5C])[sp].[moe](T)p.[moe](G)p.[moe]([m5C])p.[moe](T)[sp].d(A)[sp].d(A)[sp].d([m5C])[sp].d(T)[sp].d(G)[sp].d(G)[sp].d(T)[sp].d(T)[sp].[moe](T)p.[moe](G)p.[moe]([m5C])[sp].[moe]([m5C])}$$$$ (last 3' nucleoside missing) | 4 |
| RNA1{[moe](G)[sp].[moe](T)p.[moe](T)p.[moe](A)p.[moe]([m5C])p.d(T)[sp].d(G)[sp].d(T)[sp].d(T)[sp].d(T)[sp].d([m5C])[sp].d(G)[sp].d(A)[sp].d([m5C])[sp].d([m5C])[sp].[moe](T)p.[moe]([m5C])p.[moe](G)[sp].[moe](G)}$$$$ (last 3' nucleoside missing) | 4.5 |
| RNA1{[moe](T)[sp].[moe]([m5C])p.[moe](G)p.[moe](T)p.[moe](A)p.d(T)[sp].d(G)[sp].d(T)[sp].d(T)[sp].d(T)[sp].d(G)[sp].d(T)[sp].d([m5C])[sp].d(T)[sp].d(G)[sp].[moe](T)p.[moe]([m5C])p.[moe](T)[sp].[moe](T)}$$$$ (last 3' nucleoside missing) | 6.25 |
| RNA1{[moe](G)[sp].[moe](T)p.[moe](G)p.[moe](G)p.[moe](T)[sp].d(G)[sp].d(T)[sp].d(G)[sp].d([m5C])[sp].d(G)[sp].d([m5C])[sp].d(A)[sp].d(T)[sp].[moe](G)p.[moe](T)p.[moe](A)[sp].[moe](G)}$$$$ (last 3' nucleoside missing) | 6.75 |
| RNA1{[moe](A)[sp].[moe](A)p.[moe](G)p.[moe]([m5C])p.[moe](T)p.d(T)[sp].d(A)[sp].d(G)[sp].d(A)[sp].d(G)[sp].d(T)[sp].d(T)[sp].d(T)[sp].d(T)[sp].d(T)[sp].[moe](G)p.[moe]([m5C])p.[moe]([m5C])[sp].[moe](T)}$$$$ (last 3' nucleoside missing) | 4 |
| RNA1{[moe](G)[sp].[moe](T)p.[moe](T)p.[moe](A)p.[moe]([m5C])p.[moe](T)p.d(G)[sp].d(T)[sp].d(T)[sp].d(T)[sp].d([m5C])[sp].d(G)[sp].d(A)[sp].d([m5C])[sp].d([m5C])[sp].d(T)[sp].[moe]([m5C])p.[moe](T)[sp].[moe](G)}$$$$ (last 3' nucleoside missing) | 5 |
| RNA1{[moe](T)[sp].[moe](T)p.[moe](T)p.[moe](T)p.[moe]([m5C])[sp].d(T)[sp].d([m5C])[sp].d(A)[sp].d(T)[sp].d(G)[sp].d(T)[sp].d(G)[sp].d([m5C])[sp].[moe](G)p.[moe](G)p.[moe]([m5C])[sp].[moe](A)}$$$$ (last 3' nucleoside missing) | 5.5 |
| RNA1{[moe](G)[sp].[moe](T)p.[moe](T)p.[moe](A)p.d([m5C])[sp].d(T)[sp].d(G)[sp].d(T)[sp].d(T)[sp].d(T)[sp].d([m5C])[sp].d(G)[sp].d(A)[sp].d([m5C])[sp].[moe]([m5C])p.[moe](T)p.[moe]([m5C])p.[moe](T)[sp].[moe](G)}$$$$ (last 3' nucleoside missing) | 6.5 |
| RNA1{[moe](A)[sp].[moe]([m5C])p.[moe](T)p.[moe](T)p.[moe]([m5C])p.[moe](T)p.d([m5C])[sp].d(T)[sp].d(A)[sp].d(T)[sp].d(T)[sp].d(T)[sp].d([m5C])[sp].d(T)[sp].d(T)[sp].d(T)[sp].[moe](G)p.[moe](T)[sp].[moe]([m5C])}$$$$ (last 3' nucleoside missing) | 1.25 |
